# The source made the active and inactive calls. No cut-off for these calls is given here.
# Assays:
# [1] = system: Quadruplex DNA; experiment: Binding affinity to human telomeric 7 G-quadruplex DNA assessed as binding constant Kb1; format: nucleic-acid assay
# [2] = system: Quadruplex DNA; experiment: Binding affinity to human telomeric 7 G-quadruplex DNA assessed as binding constant Kb2; format: nucleic-acid assay
# [3] = molecular target: Albumin (Homo sapiens, UniProt P02768); experiment: Binding affinity to human serum albumin assessed as binding constant after 24 hrs by absorption spectroscopy; format: ADME; conditions: isolated protein
# [4] = Self aggregation behaviour in phosphate buffer solution assessed as effect on absorption spectra at >10 uM by absorption spectroscopy; format: physicochemical
# [5] = system: Quadruplex DNA; experiment: Binding affinity to human telomeric 7 G-quadruplex DNA assessed as hypochromic red shift at 7 uM by absorption spectroscopy relative to untreated control; format: nucleic-acid assay
# [6] = system: Quadruplex DNA; experiment: Binding affinity to human telomeric 7 G-quadruplex DNA assessed as hypochromic red shift by measuring difference in maximum absorption at 7 uM by absorption spectroscopy; format: nucleic-acid assay
# [7] = system: Quadruplex DNA; experiment: Binding affinity to human telomeric 7 G-quadruplex DNA assessed as drug-DNA complex stoichiometry ratio of 1:1 at 7 uM by absorption spectroscopy; format: nucleic-acid assay
# [8] = system: Quadruplex DNA; experiment: Binding affinity to human telomeric 7 G-quadruplex DNA assessed as drug-DNA complex stoichiometry ratio of 2:1 at 7 uM by absorption spectroscopy; format: nucleic-acid assay
# [9] = system: Quadruplex DNA; experiment: Binding affinity to human telomeric 7 G-quadruplex DNA incubated for 5 mins by UV-visible spectrophotometric analysis; format: nucleic-acid assay
# [10] = system: Quadruplex DNA; experiment: Binding affinity to human telomeric 7 G-quadruplex DNA assessed as fluorescence quenching at 7 uM by fluorescence spectral analysis; format: nucleic-acid assay
# [11] = system: Quadruplex DNA; experiment: Binding affinity to human telomeric 7 G-quadruplex DNA assessed as fluorescence quenching at 7 uM measured at 559.5 nanometer by fluorescence spectral analysis relative to control; format: nucleic-acid assay
# [12] = system: Quadruplex DNA; experiment: Binding affinity to human telomeric 7 G-quadruplex DNA assessed as fluorescence quenching at 7 uM measured at 591 nanometer by fluorescence spectral analysis relative to control; format: nucleic-acid assay
# [13] = system: Quadruplex DNA; experiment: Binding affinity to human telomeric 7 G-quadruplex DNA assessed as red shift in emission wavelength at 7 uM measured at 559.5 nanometer by fluorescence spectral analysis; format: nucleic-acid assay
# [14] = system: Quadruplex DNA; experiment: Binding affinity to human telomeric 7 G-quadruplex DNA assessed as red shift in emission wavelength at 7 uM measured at 591 nanometer by fluorescence spectral analysis; format: nucleic-acid assay
# [15] = system: Quadruplex DNA; experiment: Binding affinity to human telomeric 7 G-quadruplex DNA assessed as binding constant Kb1 at 591 nanometer by spectrofluorimetric analysis; format: nucleic-acid assay
# [16] = system: Quadruplex DNA; experiment: Binding affinity to human telomeric 7 G-quadruplex DNA assessed as binding constant Kb2 at 591 nanometer by spectrofluorimetric analysis; format: nucleic-acid assay
# [17] = system: Quadruplex DNA; experiment: Binding affinity to human telomeric 7 G-quadruplex DNA assessed as binding constant Kb1 at 559.5 nanometer by spectrofluorimetric analysis; format: nucleic-acid assay
# [18] = system: Quadruplex DNA; experiment: Binding affinity to human telomeric 7 G-quadruplex DNA assessed as binding constant Kb2 at 559.5 nanometer by spectrofluorimetric analysis; format: nucleic-acid assay
# [19] = system: Quadruplex DNA; experiment: Binding affinity to human telomeric 7 G-quadruplex DNA assessed as stern-volmer quenching constant in compound:DNA ratio of 0.4 to 1.0 by spectrofluorimetric analysis; format: nucleic-acid assay
# [20] = system: Quadruplex DNA; experiment: Binding affinity to human telomeric 7 G-quadruplex DNA assessed as quenching constant by spectrofluorimetric analysis; format: nucleic-acid assay
# [21] = system: Quadruplex DNA; experiment: Effect on parallel topology of human telomeric 7 G-quadruplex DNA assessed as reduction in negative band ellipticity at compound:DNA ratio of 3:0 by CD spectroscopy relative to control; format: nucleic-acid assay; design: scale not given: the % may be the effect or the level left
# [22] = system: Quadruplex DNA; experiment: Effect on parallel topology of human telomeric 7 G-quadruplex DNA assessed as reduction in negative band ellipticity at compound:DNA ratio of 4:0 by CD spectroscopy relative to control; format: nucleic-acid assay; design: scale not given: the % may be the effect or the level left
# [23] = system: Quadruplex DNA; experiment: Effect on parallel topology of human telomeric 7 G-quadruplex DNA assessed as reduction in […] band ellipticity at 264 nm at compound:DNA ratio of 4:0 by CD spectroscopy relative to control; format: nucleic-acid assay; design: scale not given: the % may be the effect or the level left
# [24] = system: Quadruplex DNA; experiment: Binding affinity to human telomeric 7 G-quadruplex DNA by CD spectroscopy; format: nucleic-acid assay
# [25] = system: Quadruplex DNA; experiment: Binding affinity to human telomeric 7 G-quadruplex DNA assessed as melting temperature compound:DNA ratio of 1:0 by CD spectroscopy analysis; format: nucleic-acid assay
# [26] = system: Quadruplex DNA; experiment: Binding affinity to human telomeric 7 G-quadruplex DNA assessed as melting temperature compound:DNA ratio of 2:0 to 4:0 by CD spectroscopy analysis; format: nucleic-acid assay
# [27] = system: Quadruplex DNA; experiment: Binding affinity to human telomeric 7 G-quadruplex DNA assessed as change in melting temperature compound:DNA ratio of 2:0 by CD spectroscopy analysis; format: nucleic-acid assay
# [28] = system: Quadruplex DNA; experiment: Binding affinity to human telomeric 7 G-quadruplex DNA assessed as melting temperature Tm1 compound:DNA ratio of 0:5 by CD spectroscopy analysis (reference value: 58.8 +/- 0.4 degreeC); format: nucleic-acid assay
# [29] = system: Quadruplex DNA; experiment: Binding affinity to human telomeric 7 G-quadruplex DNA assessed as melting temperature Tm1 compound:DNA ratio of 2:0 by CD spectroscopy analysis (reference value: 58.8 +/- 0.4 degreeC); format: nucleic-acid assay
# [30] = system: Quadruplex DNA; experiment: Binding affinity to human telomeric 7 G-quadruplex DNA assessed as delta Tm1 compound:DNA ratio of 0:5 by CD spectroscopy analysis; format: nucleic-acid assay
# [31] = system: Quadruplex DNA; experiment: Binding affinity to human telomeric 7 G-quadruplex DNA assessed as delta Tm1 compound:DNA ratio of 2:0 by CD spectroscopy analysis; format: nucleic-acid assay
# [32] = system: Quadruplex DNA; experiment: Binding affinity to human telomeric 7 G-quadruplex DNA assessed as melting temperature Tm2 compound:DNA ratio of 2:0 by CD spectroscopy analysis (reference value: 64.3 +/- 0.2 degreeC); format: nucleic-acid assay
# [33] = system: Quadruplex DNA; experiment: Binding affinity to human telomeric 7 G-quadruplex DNA assessed as delta Tm2 compound:DNA ratio of 2:0 by CD spectroscopy analysis; format: nucleic-acid assay
# [34] = system: Quadruplex DNA; experiment: Binding affinity to human telomeric 7 G-quadruplex DNA assessed as melting temperature Tm3 compound:DNA ratio of 0:5 by CD spectroscopy analysis; format: nucleic-acid assay
# [35] = system: Quadruplex DNA; experiment: Binding affinity to human telomeric 7 G-quadruplex DNA assessed as delta Tm3 compound:DNA ratio of 2:0 by CD spectroscopy analysis; format: nucleic-acid assay
# [36] = system: Quadruplex DNA; experiment: Binding affinity to human telomeric 7 G-quadruplex DNA assessed as fluorescence quenching at 7 uM in presence of 100 to 150 mM K+ ion by fluorescence spectral analysis relative to control; format: nucleic-acid assay
# [37] = system: Quadruplex DNA; experiment: Binding affinity to human telomeric 7 G-quadruplex DNA assessed as hypochromic red shift at 7 uM in presence of 100 to 150 mM K+ ion by fluorescence spectral analysis; format: nucleic-acid assay
# [38] = system: Quadruplex DNA; experiment: Binding affinity to human telomeric 7 G-quadruplex DNA assessed as fluorescence quenching at 7 uM in presence of water by fluorescence spectral analysis relative to control; format: nucleic-acid assay
# [39] = system: Quadruplex DNA; experiment: Binding affinity to human telomeric 7 G-quadruplex DNA assessed as hypochromic red shift at 7 uM in presence of water by fluorescence spectral analysis; format: nucleic-acid assay
# [40] = system: Quadruplex DNA; experiment: Binding affinity to human telomeric 7 G-quadruplex DNA assessed as fluorescence quenching at 7 uM in presence of 100 mM NaCl by fluorescence spectral analysis relative to control; format: nucleic-acid assay
# [41] = system: Quadruplex DNA; experiment: Binding affinity to human telomeric 7 G-quadruplex DNA assessed as hypochromic red shift at 7 uM in presence of 100 mM NaCl by fluorescence spectral analysis; format: nucleic-acid assay
# [42] = system: Quadruplex DNA; experiment: Binding affinity to human telomeric 22 G-quadruplex DNA assessed as binding constant in presence of NaCl by CD spectroscopy analysis; format: nucleic-acid assay
# [43] = system: Quadruplex DNA; experiment: Binding affinity to human telomeric 22 G-quadruplex DNA assessed as binding constant in presence of KCl by CD spectroscopy analysis; format: nucleic-acid assay
# [44] = system: Tetrahymena thermophila; experiment: Binding affinity to Tetrahymena thermophila telomeric 22 G-quadruplex DNA assessed as binding constant Kb1
# [45] = system: Tetrahymena thermophila; experiment: Binding affinity to Tetrahymena thermophila telomeric 22 G-quadruplex DNA assessed as binding constant Kb2
# [46] = system: Quadruplex DNA; experiment: Binding affinity to human telomeric 7 G-quadruplex DNA assessed as stern-volmer quenching constant in compound:DNA ratio of 1.2 to 3.8 by spectrofluorimetric analysis; format: nucleic-acid assay
# [47] = system: Quadruplex DNA; experiment: Binding affinity to human telomeric 7 G-quadruplex DNA at compound:DNA ratio of 0.4 to 1.0 by spectrofluorimetric analysis; format: nucleic-acid assay
# [48] = system: Quadruplex DNA; experiment: Binding affinity to human telomeric 7 G-quadruplex DNA at compound:DNA ratio of 2.3 to 6.1 by spectrofluorimetric analysis; format: nucleic-acid assay
# [49] = system: Quadruplex DNA; experiment: Binding affinity to human telomeric 7 G-quadruplex DNA assessed as binding constant Kb1 in water by fluorescence spectral analysis; format: nucleic-acid assay
# [50] = system: Quadruplex DNA; experiment: Binding affinity to human telomeric 7 G-quadruplex DNA assessed as binding constant Kb2 in water by fluorescence spectral analysis; format: nucleic-acid assay
# [51] = system: Quadruplex DNA; experiment: Binding affinity to human telomeric 7 G-quadruplex DNA assessed as binding constant Kb1 in 100 mM NaCl by fluorescence spectral analysis; format: nucleic-acid assay
# [52] = system: Quadruplex DNA; experiment: Binding affinity to human telomeric 7 G-quadruplex DNA assessed as binding constant Kb2 in 100 mM NaCl by fluorescence spectral analysis; format: nucleic-acid assay
# [53] = system: Quadruplex DNA; experiment: Binding affinity to human telomeric 7 G-quadruplex DNA assessed as binding constant Kb1 in absence of KCl by fluorescence spectral analysis; format: nucleic-acid assay
# [54] = system: Quadruplex DNA; experiment: Binding affinity to human telomeric 7 G-quadruplex DNA assessed as binding constant Kb2 in absence of KCl by fluorescence spectral analysis; format: nucleic-acid assay
# [55] = system: Quadruplex DNA; experiment: Binding affinity to human telomeric 7 G-quadruplex DNA assessed as binding constant Kb1 in 50 mM of KCl by fluorescence spectral analysis; format: nucleic-acid assay
# [56] = system: Quadruplex DNA; experiment: Binding affinity to human telomeric 7 G-quadruplex DNA assessed as binding constant Kb2 in 50 mM of KCl by fluorescence spectral analysis; format: nucleic-acid assay
# [57] = system: Quadruplex DNA; experiment: Binding affinity to human telomeric 7 G-quadruplex DNA assessed as binding constant Kb1 in 150 mM of KCl by fluorescence spectral analysis; format: nucleic-acid assay
# [58] = system: Quadruplex DNA; experiment: Binding affinity to human telomeric 7 G-quadruplex DNA assessed as binding constant Kb2 in 150 mM of KCl by fluorescence spectral analysis; format: nucleic-acid assay
# [59] = system: Quadruplex DNA; experiment: Binding affinity to human telomeric 7 G-quadruplex DNA assessed as binding constant Kb1 in 100 mM KCl by fluorescence spectral analysis; format: nucleic-acid assay
# [60] = system: Quadruplex DNA; experiment: Binding affinity to human telomeric 7 G-quadruplex DNA assessed as binding constant Kb2 in 100 mM KCl by fluorescence spectral analysis; format: nucleic-acid assay
# Sequence of Albumin (P02768 whole entry): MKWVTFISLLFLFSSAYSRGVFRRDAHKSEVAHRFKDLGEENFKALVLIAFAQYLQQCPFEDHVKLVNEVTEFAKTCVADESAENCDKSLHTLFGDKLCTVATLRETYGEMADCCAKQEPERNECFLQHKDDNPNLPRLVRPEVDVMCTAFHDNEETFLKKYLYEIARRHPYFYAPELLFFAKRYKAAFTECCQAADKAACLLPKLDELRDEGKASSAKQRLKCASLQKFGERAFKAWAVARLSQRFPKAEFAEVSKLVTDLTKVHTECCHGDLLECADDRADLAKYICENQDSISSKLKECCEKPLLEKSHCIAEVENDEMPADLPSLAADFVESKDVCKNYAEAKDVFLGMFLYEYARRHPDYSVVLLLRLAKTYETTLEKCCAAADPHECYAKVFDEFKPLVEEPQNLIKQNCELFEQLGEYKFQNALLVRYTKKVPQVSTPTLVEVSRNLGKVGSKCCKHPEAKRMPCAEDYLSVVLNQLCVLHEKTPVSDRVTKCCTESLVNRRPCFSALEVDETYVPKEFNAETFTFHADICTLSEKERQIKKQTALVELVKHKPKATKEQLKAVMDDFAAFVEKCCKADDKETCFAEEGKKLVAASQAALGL
smiles,measurement,setting,value
COc1cccc2c1C(=O)c1c(O)c3c(c(O)c1C2=O)C[C@@](O)(C(=O)CO)C[C@@H]3O[C@H]1C[C@H](N)[C@H](O)[C@H](C)O1.Cl [DOXORUBICIN HYDROCHLORIDE],Kb,[1],1.1 ×10⁶ /M
same,Kb,[2],0.6 ×10⁶ /M
same,Kb,[3],3 ×10³ /M
COc1cccc2c1C(=O)c1c(O)c3c(c(O)c1C2=O)C[C@@](O)(C(=O)CO)C[C@@H]3O[C@H]1C[C@H](N)[C@@H](O)[C@H](C)O1 [EPIRUBICIN],Activity,[4],Active
same,Activity,[5],47.6%
same,deltaA,[6],9 nm
same,Activity,[7],Active
same,Activity,[8],Active
same,Kb,[9],2.3 ×10⁶ /M
same,Activity,[10],Active
same,Activity,[11],93%
same,Activity,[12],92%
same,deltaA,[13],8 nm
same,deltaA,[14],16 nm
same,Kb,[15],2.7 ×10⁶ /M
same,Kb,[16],3.8 ×10⁶ /M
same,Kb,[17],2 ×10⁶ /M
same,Kb,[18],4.6 ×10⁵ /M
same,KSV,[19],4.1 ×10⁵ /M
same,Kq,[20],7.5 ×10¹⁴ /M/s
same,Activity,[21],90%
same,Activity,[22],59%
same,Activity,[23],18%
same,Kb,[24],1.9 ×10⁶ /M
same,Tm,[25],65 °C
same,Tm,[26],70 °C
same,ΔTm,[27],15 °C
same,Tm,[28],68.1 °C
same,Tm,[29],70.4 °C
same,ΔTm,[30],9.3 °C
same,ΔTm,[31],11.6 °C
same,Tm,[32],77.5 °C
same,ΔTm,[33],13.2 °C
same,Tm,[34],90.6 °C
same,ΔTm,[35],26.3 °C
same,Activity,[36],89%
same,deltaA,[37],8 to 16 nm
same,Activity,[38],60%
same,deltaA,[39],0.5 nm
same,Activity,[40],39%
same,deltaA,[41],1 nm
same,Kb,[42],2.5 ×10⁴ /M
same,Kb,[43],3 to 3.6 ×10⁵ /M
same,Kb,[44],1.9 ×10⁶ /M
same,Kb,[45],2.3 ×10⁵ /M
same,KSV,[46],1.1 ×10⁶ /M
same,Kb,[47],2 ×10⁶ /M
same,Kb,[48],4.6 ×10⁵ /M
same,Kb,[49],8.4 ×10⁴ /M
same,Kb,[50],53 ×10⁴ /M
same,Kb,[51],3.5 ×10⁴ /M
same,Kb,[52],7.3 ×10⁴ /M
same,Kb,[53],1.8 ×10⁴ /M
same,Kb,[54],0.24 ×10⁴ /M
same,Kb,[55],2.7 ×10⁶ /M
same,Kb,[56],3.8 ×10⁶ /M
same,Kb,[57],1.3 to 1.9 ×10⁶ /M
same,Kb,[58],4.6 ×10⁶ /M
same,Kb,[59],2.3 ×10⁶ /M
same,Kb,[60],4 ×10⁶ /M
